Results published in US20150190410A1, “USE OF CREATINE AND PHOSPHOCREATINE IN THE TREATMENT OF EPILEPSY AND ALCOHOL ADDICTION” (Dignity Health, priority 2012, published 2015).
Several values for one entry are separate records, joined by “and”; a condition that tells them apart may be missing. Identical values can stand only once.

Tests used:
[1] = tested on: atypical absence epilepsy rodent models; assay: AY9944 atypical absence epilepsy rodent model: seizure number and seizure time under creatine; format: in vivo, rat
[2] = tested on: GABAA receptor expressing cells; assay: Co-application with ethanol on GABAA receptor expressing cells; format: cell-based; conditions: depends on concentration relative to ethanol
Source text: Thus, in one embodiment, creatine, phosphocreatine and their analogs can be used to prevent and/or provide protection against alcohol addiction.
Alcoholism is a serious problem both to the individual, the individual's family, and society. Currently there is no compound that can effectively prevent alcoholism. Alcohol (Ethanol) acts as a positive allosteric modulator of extrasynaptic GABAA receptors. […] Thus creatine, phosphocreatine and their analogs may be used to prevent and/or provide protection against alcohol addiction.

[3] = tested on: atypical absence epilepsy rodent models; assay: AY9944 atypical absence epilepsy rodent model: seizure number and seizure time under creatine; format: in vivo, rat; conditions: for Seizure # Between 13:00:00 to 15:00:00: twice daily injection of creatine at 30 mg/kg, individual epileptic animals
Protocol: • Induced via administering the cholesterol inhibitor AY9944 during postnatal developing period P2 to P21. • Epileptic seizure is chronic, resembling all the symptoms of atypical absence epilepsy • Failure to show ictal immobility • Slow spike-wave discharges • Cognitive impairments • Counterintuitive with application of GABA Positive allosteric modulators and Agonists. • Greater seizure susceptibility in female than male.
11 epileptic animals were treated initially with saline to establish base line (day 0), then treated with twice daily injection of creatine at 30 mg/kg (days 1-5). […] Specifically, the inventors performed the following: • Day 0—Control (saline injection) • Injection of creatine between days 1-5—twice daily injection of 30 mg/kg of creatine • Day #2 (30 mg/kg creatine) • Day #5 (30 mg/kg creatine)

[4] = tested on: extra-synaptic GABAA receptors; assay: Allosteric modulation of extra-synaptic GABAA receptors (expression cells; whole cell patch clamp); format: cell-based
Source text: FIG. 3 depicts, in accordance with an embodiment herein, utilizing whole cell patch clamp on primary cultured neuron (rat cortex) to confirm creatine's effect on extra-synaptic GABAA receptors.

[5] = Day 2 vs Day 0 saline control, 30 mg/kg twice daily, individual animals, 30 mg/kg
[6] = Day 5 vs Day 0 saline control, 30 mg/kg twice daily, individual animals, 30 mg/kg
[7] = average of 11 animals, Day 2, 30 mg/kg twice daily
[8] = average of 11 animals, Day 5, 30 mg/kg twice daily

Compound	duration of effect of a single dose compared to current antiepileptic drugs [1]	effect on the GABAA receptor positive allosteric modulator effect of alcohol (ethanol) [2]	Seizure # Between 13:00:00 to 15:00:00 ([3]; Day 2, 30 mg/kg)	% Seizure # Reduction, Day #2 Post Creatine/Control [3, 5]	% Total Seizure Time Reduction, Day #2 Post Creatine/Control [3, 5]	Seizure # Between 13:00:00 to 15:00:00 ([3]; Day 5, 30 mg/kg)	% Seizure # Reduction, Day #5 Post Creatine/Control [3, 6]	% Total Seizure Time Reduction, Day #5 Post Creatine/Control [3, 6]	% Seizure # Reduction, Day #2 Post Creatine/Control, Average [3, 7] [%]	% Total Seizure Time Reduction, Day #2 Post Creatine/Control, Average [3, 7] [%]	% Seizure # Reduction, Day #5 Post Creatine/Control, Average [3, 8] [%]	% Total Seizure Time Reduction, Day #5 Post Creatine/Control, Average [3, 8] [%]	reduction in duration of epileptic seizure events ([3]; epileptic rodent model)	reduction in frequency of epileptic seizure events ([3]; epileptic rodent model)	mode of action on extra-synaptic GABAA receptors [4]	therapeutic effect compared with creatine ([3]; atypical absence epilepsy rodent models)	effect on expression cells compared with creatine ([4]; expression cells)
CN(CC(=O)O)C(=N)N [creatine]	last much longer than conventional antiepileptic drugs	preventing or significantly diminishing	2 and 17 (2×) and 14 and 7 and 31 and 25 and 16 and 20 and 4 and 15	28.57% and 91.30% and 63.04% and 56.25% and 12.50% and 27.91% and 30.56% and 44.83% and 25.93% and 69.23% and 26.09%	63.25% and 80.95% and 92.74% and 82.31% and 52.13% and 40.86% and 76.08% and 73.42% and 89.95% and 85.75% and 74.05%	5 (2×) and 21 and 18 and 4 and 26 and 23 and 13 and 16 and 10 and 15	76.19% and 78.26% and 54.35% and 43.75% and 50.00% and 39.53% and 36.11% and 55.17% and 40.74% and 23.08% and 34.78%	86.37% and 70.56% and 58.23% and 70.52% and 46.23% and 35.72% and 80.58% and 85.99% and 92.36% and 36.75% and 74.61%	43.29	73.77	48.36	67.08	greater than 70%	greater than 70%	partial negative allosteric modulator		
NC1=NCCN1CC(=O)O [cyclocreatine]																does not confer the same therapeutic effect as creatine	
CN(CC(=O)O)C(=N)NP(=O)(O)O [phosphocreatine]		preventing or significantly diminishing															same effect as creatine
